According to patent US11330999B2 (MEMORIAL SLOAN KETTERING CANCER CENTER, priority 2017, dated 2022):

Assays:
[1] = Thermal equilibrium T1 at high field (14.1T), inversion recovery; format: physicochemical; settings: for T1 Value (s) D2O: 95:5 D2O:H2O, 100 mM Tris pD 7.4; for T1 Value (s) H2O: 100% H2O, 100 mM Tris pH 7.4
Procedure: (§1) [5-^13C]-glutamine (Cambridge Isotope Laboratories), [^13C]-urea (Sigma Aldrich), [^13C, ^15N2]-urea (Sigma Aldrich), [6-^13C]-arginine (Cambridge Isotope Laboratories), [5-^13C, ^15N]-glutamine (24) (24, as described in Example 7) and [6-^13C, ^15N3]-arginine (21, as described in Example 2) were evaluated to determine thermal equilibrium T1 and T2. An aliquot of each compound was dissolved in 95:5 D2O:H2O containing 100 mM Tris pD 7.4 and 100% H2O containing 100 mM Tris pH 7.4. [^13C]-urea and [^13C, ^15N2]-urea were dissolved to a final concentration of 100 mM.
(§2) ^13C NMR spectra for each compound dissolved in 95:5 D2O:H2O and 100% H2O was obtained with a 14.1T ^13C NMR (Bruker, USA). For inversion recovery experiments, 13 to 15 different delay times between the 180° and 90° pulses, spanning 3T1, were sampled. Each spectrum was an average of 3 to 4 scans, and a 5T1 to 6T1 pre-scan wait time was used to allow re-polarization of carbon nuclear spins between scans. T2 values were measured using a Carr-Purcell-Meiboom-Gill (CPMG) sequence for each compound dissolved in 95:5 D2O:H2O and 100% H2O. A 10 ms (or 5 ms ^13C-urea samples) wait-time between 180° pulses was used, and signal was acquired at total echo times spanning 3T2. For both T1- and T2-relaxation curve fitting, spectra were imported into Mnova (Mestrelabs, USA) and the area under the curve (AUC) of the ^13C resonance of interest was integrated. AUC values were exported to Prism 7 (GraphPad Software, USA), plotted against time on the x-axis, and data points were fit to the Bloch equations for T1 and T2.
(§3) When each compound was dissolved in D2O, the exchangeable protons on the nitrogen atoms rapidly exchange with deuterium in the solvent. As described in Table 1, at high field, each compound having protons exchanged with deuterium extended the T1 of ^13C relaxation times directly bonded to —NH or —NH2 residues, respectively. This effect is further illustrated for [6-^13C]-/[6-^13C, ^15N3]-arginine in FIG. 7.

[2] = Thermal equilibrium T2 at high field (14.1T), CPMG; format: physicochemical; settings: for T2 Value (s) D2O: 95:5 D2O:H2O, 100 mM Tris pD 7.4; for T2 Value (s) H2O: 100% H2O, 100 mM Tris pH 7.4
Procedure: as §1, §2, §3

[3] = Hyperpolarized T1 at 1T after dissolution in buffered H2O or D2O; format: physicochemical; settings: for Hyperpolarized T1 Value (s) D2O: dissolution in 100 mM Tris 1 mM EDTA pD 7.4 D2O; for Hyperpolarized T1 Value (s) H2O: dissolution in 100 mM Tris 1 mM EDTA pH 7.4 H2O
Procedure: Each compound was prepared with a different formulation, as follows: [5-^13C]- and [5-^13C, ^15N]-glutamine was mixed with 1.1 equivalent HCl and dissolved to a final concentration of 1.5 Min H2O:DMSO (65:35). [^13C]— and [^13C, ^15N2]-urea was dissolved to a final concentration of 6M in glycerol. [6-^13C]- and [6-^13C, ^15N3]-arginine was mixed with 1 equivalent HCl and dissolved to a final concentration of 3.2M in H2O. Each of these preparations also contained OX063 radical (General Electric, UK) dissolved to a final concentration of 15 mM. [^13C]—/[^13C, ^15N2]-urea and [6-^13C]-/[6-^13C, ^15N3]-arginine samples were polarized in a 3.35T SpinLab Polarizer (General Electric, UK) for 1.5 hours (0.83K, 93.98 GHz), while: [5-^13C]-/[^13C, ^15N]-glutamine samples were polarized in a 5T SpinLab Polarizer for 2 hours (0.83K, 93.98 GHz). Following polarization, the HP substrate was ejected from the polarizer via rapid dissolution, during which a superheated solution of 100 mM Tris 1 mM EDTA in pH 7.4 H2O or pD 7.4 D2O is run through the sample vial to dissolve the polarized substrate and eject it into a pre-chilled glass vial (−20° C.).

[4] = In vivo 13C EPI imaging of hyperpolarized urea in mouse; settings: healthy female Balb/c mouse, monitored for 30 minutes
Procedure: Hyperpolarized [^13C, ^15N2]-urea was studied under clinical imaging conditions. A healthy female Balb/c mouse (12 weeks old) was injected with identical volumes of hyperpolarized [^13C, ^15N]-urea dissolved in either buffered D2O or H2O (FIG. 9A). Both samples were polarized for similar amounts of time and were dissolved to similar final concentrations. Immediately following the end of the injection, an axial 2D ^13C echo-planar imaging (EPI) sequence was initiated with a 3 s repetition time, 16×16 resolution with 2.25 mm×2.25 mm×10 mm voxels.

[5] = FWHM of 13C NMR peaks at 14.1T (quadrupolar relaxation at guanidine-carbon); format: physicochemical; settings: for FWHM of the guanidine-carbon peak / FWHM of carbon-1: 14.1T 13C NMR; for FWHM of carbon-1: internal standard
Procedure: (§4) To confirm the reduction of quadrupolar relaxation at the guanidine-carbon by ^15N enrichment, ^13C NMR spectra for unlabeled and [6-^13C, 6-^15N3]-L-Arginine-HCl (21, as described in Example 2) was obtained with a 14.1T ^13C NMR. The full width half max (FWHM) of the guanidine-carbon peak was measured, and the FWHM of the carbon-1 peak was used as an internal standard. For hyperpolarized T1 measurements compound 21 was mixed with 1 equivalent HCl and dissolved to a final concentration of 1.3 M in 2:3 H2O:glycerol with 15 mM of a OX063 radical. The sample was polarized for at least 1 h in a SpinSolve polarizer. […] This was performed twice and the calculated T1 values were averaged.
(§5) The FWHM of the guanidine-carbon peak for natural abundance and compound 21 was measured to be 1.4 Hz and 1.0 Hz, respectively, and the FWHM of carbon-1 was 0.9 Hz for both compounds (FIG. 5B).
Therefore, the present methods may be used to follow Arg-1 activity within a tumor and serve as a surrogate readout of TAM infiltration. As such, this information may be used in therapy selection, monitoring therapeutic efficacy, and determining prognosis.

[6] = Hyperpolarized T1 of arginine guanidine-carbon at 1T; format: physicochemical; settings: 30° flip angle, 3 s repetition time, average of two
Procedure: as §4, §5

[7] = molecular target: T1, human recombinant arginase-1 (Homo sapiens, UniProt P05089); assay: Michaelis-Menten kinetics, colorimetric urea assay; format: biochemical; settings: 37° C., compound as substrate
T1 sequence (P05089 1-322): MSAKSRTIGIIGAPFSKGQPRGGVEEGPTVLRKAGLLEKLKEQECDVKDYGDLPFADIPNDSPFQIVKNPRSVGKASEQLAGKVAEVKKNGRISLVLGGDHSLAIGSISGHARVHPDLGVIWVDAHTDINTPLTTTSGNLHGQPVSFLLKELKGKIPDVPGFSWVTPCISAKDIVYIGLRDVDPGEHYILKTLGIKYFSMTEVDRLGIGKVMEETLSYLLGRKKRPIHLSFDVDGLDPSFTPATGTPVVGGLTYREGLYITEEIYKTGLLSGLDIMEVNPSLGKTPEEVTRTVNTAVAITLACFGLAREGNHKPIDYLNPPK

[8] = molecular target: T2, arginase (Mus musculus, UniProt Q61176); assay: In vivo conversion of injected labeled arginine to urea in mouse liver (13C-NMR of extract); settings: Balb/c mouse, tail vein 250 μL 20 mM, 1 min post-injection, extrapolated to a 1 g liver
T2 construct: from tissue; host or cells: liver of a living Balb/c mouse (in vivo)
T2 sequence (Q61176 1-323): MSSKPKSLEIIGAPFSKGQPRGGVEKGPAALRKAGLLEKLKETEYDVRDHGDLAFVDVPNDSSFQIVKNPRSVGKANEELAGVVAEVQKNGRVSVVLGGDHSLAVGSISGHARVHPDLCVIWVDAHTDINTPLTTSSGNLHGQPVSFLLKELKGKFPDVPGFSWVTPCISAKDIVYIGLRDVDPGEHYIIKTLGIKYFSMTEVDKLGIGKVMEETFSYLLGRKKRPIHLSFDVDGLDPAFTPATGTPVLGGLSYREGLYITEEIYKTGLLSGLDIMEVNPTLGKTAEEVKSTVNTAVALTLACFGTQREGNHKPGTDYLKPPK
Procedure: In vivo assay: A female, Balb/c mouse was equipped with a tail vein cannula and placed under anesthesia (1.5% isoflurane, 1 L/min for 30 mins), after which it was injected with 250 μL 20 mM [6-^13C, ^15N3]-arginine in 100 mM Tris, 1 mM EDTA pH 7.4 (in addition to another 100 μL of 10 U/mL heparin in saline which was in the dead space of the cannula) over the course of 10 seconds. 1 minute post-injection, the mouse was sacrificed via cervical dislocation, and the liver was collected and frozen in liquid nitrogen. 118 mg of the liver was extracted in 4% perchloric acid, the metabolite extract mixture was dried and subsequently re-suspended in D2O containing the glycine standard and 0.5 mM Gd-DOTA. A ^13C-NMR spectrum was acquired on a 600 MHz spectrometer (FIG. 10).

[9] = Hyperpolarized T1 measurement of 13C,15N-xanthine at 1T; format: physicochemical; settings: mono-exponential decay fit corrected for flip angle
Procedure: (§6) A preparation containing 0.15-0.2 M [2-^13C, 1,3-^15N2]-3,7-dihydro-1H-purine-2,6-dione (6, as described in Example 1) and the OX063 radical was hyperpolarized using a SPINlab hyperpolarizer. T1 measurements were performed using 1T Magritek Spectrometer. For the acquisition of hyperpolarized spectra, data was acquired with a 5 s repetition time and 15° excitation for a total of 45 s. In vitro enzymatic experiments to evaluate the activity of XO in oxidizing xanthine (XA) to uric acid (UA) using superoxide as a cofactor were performed using 100 mg of mouse liver extract together with a PMS/NADH+ system to generate O^2−. ^13C NMR spectra was acquired using a 14.1T NMR spectrometer.
(§7) Compound 6 was hyperpolarized. The ^13C chemical shift between hyperpolarized XA and hyperpolarized UA was measured and determined to be 0.8 ppm. After dissolution, spectra of compound 6 were obtained and fit to a mono-exponential decay function, correcting for flip angle, to determine the spin-lattice relaxation time. A T1 of 77±1.4 s was measured (FIG. 2).

[10] = molecular target: T3, Xanthine Oxidase (XO) (Mus musculus, UniProt Q00519); assay: In vitro oxidation of xanthine by XO in mouse liver extract with O2− (PMS/NADH system), 13C NMR; format: biochemical; settings: 100 mg mouse liver extract, in the presence of O2−
T3 construct: from tissue; host or cells: mouse liver extract
Procedure: as §6, §7

[11] = system: U251 cells; assay: CellROX green fluorescence microscopy of intracellular ROS; format: cell-based; settings: menadione-treated U251 cells, co-incubation for 45 min
Procedure: Western blots for XO and xanthine transporter were performed using 20 ng of protein extract from 14 cell lines. In vitro fluorescent microscopy using CellROX green was performed in U251 cells to evaluate intracellular reactive oxygen species (ROS) and the effect of xanthine as an ROS scavenger. 14 different cancer cell lines from renal, sarcoma, lung, prostate, breast, pancreatic, oral, epithelial cancer were also screened to evaluate expression of xanthine transporter and XO. In all the cells, a high expression of XO was observed, whereas xanthine transporter was variable between the cell lines, with the largest expression in U251 cells. Therefore, this cell line was used for further in vitro fluorescence experiments (FIG. 3).

T3 sequence (Q00519 whole entry): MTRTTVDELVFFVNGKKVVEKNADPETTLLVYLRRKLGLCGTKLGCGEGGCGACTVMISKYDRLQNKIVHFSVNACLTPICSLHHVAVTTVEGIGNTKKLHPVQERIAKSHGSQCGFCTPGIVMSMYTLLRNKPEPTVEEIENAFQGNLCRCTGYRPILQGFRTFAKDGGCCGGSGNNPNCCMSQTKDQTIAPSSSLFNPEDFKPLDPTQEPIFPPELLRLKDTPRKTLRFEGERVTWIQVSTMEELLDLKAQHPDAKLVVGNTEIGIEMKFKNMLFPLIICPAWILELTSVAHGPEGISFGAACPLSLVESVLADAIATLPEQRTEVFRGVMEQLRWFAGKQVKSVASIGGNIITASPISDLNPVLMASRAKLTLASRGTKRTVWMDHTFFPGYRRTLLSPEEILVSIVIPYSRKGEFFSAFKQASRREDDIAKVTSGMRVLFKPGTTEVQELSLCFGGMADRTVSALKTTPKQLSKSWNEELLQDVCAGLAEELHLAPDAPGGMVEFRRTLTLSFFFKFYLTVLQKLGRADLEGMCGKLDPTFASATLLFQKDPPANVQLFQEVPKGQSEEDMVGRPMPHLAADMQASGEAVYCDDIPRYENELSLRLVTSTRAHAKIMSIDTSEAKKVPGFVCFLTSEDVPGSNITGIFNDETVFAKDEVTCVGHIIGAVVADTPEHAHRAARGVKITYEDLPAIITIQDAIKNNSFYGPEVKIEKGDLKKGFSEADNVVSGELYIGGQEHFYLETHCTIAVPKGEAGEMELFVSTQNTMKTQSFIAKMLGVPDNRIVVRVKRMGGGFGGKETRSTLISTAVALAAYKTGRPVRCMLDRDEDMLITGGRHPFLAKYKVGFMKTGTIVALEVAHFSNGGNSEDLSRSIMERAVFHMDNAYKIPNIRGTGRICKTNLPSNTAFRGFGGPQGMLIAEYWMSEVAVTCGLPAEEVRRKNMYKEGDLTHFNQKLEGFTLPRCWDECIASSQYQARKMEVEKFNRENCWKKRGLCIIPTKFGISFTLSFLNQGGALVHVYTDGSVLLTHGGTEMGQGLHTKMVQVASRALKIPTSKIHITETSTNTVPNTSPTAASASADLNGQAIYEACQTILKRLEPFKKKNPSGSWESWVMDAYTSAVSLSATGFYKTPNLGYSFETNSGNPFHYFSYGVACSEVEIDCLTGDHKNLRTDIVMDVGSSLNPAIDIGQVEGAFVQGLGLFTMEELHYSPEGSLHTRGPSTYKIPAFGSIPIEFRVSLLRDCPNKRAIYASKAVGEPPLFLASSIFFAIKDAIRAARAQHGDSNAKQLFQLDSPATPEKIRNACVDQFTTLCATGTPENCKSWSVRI

T1 Value (s) D2O [1]	T1 Value (s) H2O [1]	T2 Value (s) D2O [2]	T2 Value (s) H2O [2]	Hyperpolarized T1 Value (s) D2O [3]	Hyperpolarized T1 Value (s) H2O [3]	morbidity after the two injections [4]	T1 (spin-lattice relaxation time) [9]	time to be oxidized in liver extracts [10]	Molecule	FWHM of the guanidine-carbon peak [5]	FWHM of carbon-1 [5]	decrease of FWHMguanidine:FWHMcarbon-1 ratio ([5]; labeled versus natural abundance arginine)	T1 of the guanidine-carbon [6]	Km [7]	Vmax [7]	[13C, 15N2]-urea produced, share of the total injected arginine dose [8]	oxidative stress (CellRox fluorescence) [11]
57.34 ± 2.04 s	31.97 ± 1.38 s	34.61 ± 0.64 s	20.12 ± 0.17 s	115.9 ± 8.5 s	53.3 ± 2.6 s	no obvious morbidity			[15NH2][13C]([15NH2])=O [Urea ^13C, ^15N2, [^13C, ^15N2]-urea]								
									N=C(N)NCCC[C@H](N)C(=O)O [natural abundance arginine, arginine]	1.4 Hz	0.9 Hz				54.8 ± 2.2 s⁻¹		
12.29 ± 0.32 s	10.79 ± 0.34 s	4.66 ± 0.67 s	3.35 ± 0.21 s	31.2 ± 3.8 s	23.6 ± 2.1 s				N[C@@H](CC[13C]([15NH2])=O)C(=O)O [Compound 24, (5-13C, 5-15N) L-glutamine]								
							77 ± 1.4 s	less than 10 minutes	O=c1[15nH][13c](=O)[15nH]c2nc[nH]c12 [Compound 6, [2-^13C, 1,3-^15N2]-3,7-dihydro-1H-purine-2,6-dione]								reduced
12.34 ± 0.21 s	10.66 ± 0.34 s	0.455 ± 0.004 s	0.354 ± 0.003 s	34.1 ± 2.5 s	21.8 ± 1.8 s				N[C@@H](CC[13C](N)=O)C(=O)O [Glutamine ^13C, [5-^13C]-glutamine]								
57.24 ± 3.95 s	31.01 ± 1.18 s	0.100 ± 0.002 s	0.089 ± 0.001 s	123.8 ± 19.6 s	51.6 ± 5.44 s				N[13C](N)=O [Urea ^13C, [^13C]-urea]								

Molecule	T1 Value (s) D2O [1]	T1 Value (s) H2O [1]	T2 Value (s) D2O [2]	T2 Value (s) H2O [2]	Hyperpolarized T1 Value (s) D2O [3]	Hyperpolarized T1 Value (s) H2O [3]	morbidity after the two injections [4]	T1 (spin-lattice relaxation time) [9]	time to be oxidized in liver extracts [10]	FWHM of the guanidine-carbon peak [5]	FWHM of carbon-1 [5]	decrease of FWHMguanidine:FWHMcarbon-1 ratio ([5]; labeled versus natural abundance arginine)	T1 of the guanidine-carbon [6]	Km [7]	Vmax [7]	[13C, 15N2]-urea produced, share of the total injected arginine dose [8]	oxidative stress (CellRox fluorescence) [11]
[6-^13C, 6-^15N3]-L-Arginine-HCl [Compound 21]	9.71 ± 0.26 s	6.83 ± 0.19 s	2.68 ± 0.03 s	0.82 ± 0.02 s	31.2 ± 6.8 s	13.3 ± 0.8 s				1.0 Hz	0.9 Hz	29%	20.4 ± 0.4 s	2040 ± 270 µM	48.2 ± 2.0 s⁻¹	approx. 3%	
N=[13C](N)NCCC[C@H](N)C(=O)O [Arginine ^13C, [6-^13C]-arginine]	9.74 ± 0.32 s	6.62 ± 0.22 s	0.234 ± 0.004 s	0.184 ± 0.003 s	32.1 ± 4.5 s								could not be measured				
